Biological target: PAD4 (Homo sapiens, UniProt Q9UM07)
Test: PAD4 Inhibition Assay (citrulline formation from BAEE substrate)
Type: biochemical
Conditions: PAD4 75 nM, 60 minute preincubation at 37° C., 90 minutes
Experimental: PAD4 was diluted to 75 nM in Assay Buffer (50 mM Tris-HCl, 2 mM CaCl2), 2 mM DTT, 1 mM PMSF in H2O) and added to wells with various concentrations of compound or DMSO vehicle in Eppendorf tubes (final volume was 100 μL). Following a 60 minute preincubation at 37° C., the reaction was initiated by the addition of 10 μL substrate (22 mM BAEE in H2O) at 37° C. The reaction was stopped after 90 minutes by the addition of 25 μL HClO4 (5 M), 125 μL Reagent A (10 g/L diacetyl monoxime and 15 g/L NaCl in H2O) and 250 μL Reagent B (10 mg/mL antipyrine and 1.0 mg/mL FeCl3 diluted in detection buffer containing 25% H2SO4, 25% H3PO4 and 50% H2O) in sequence. This assay was quenched in an ice-bath for 5 minutes after boiling for 30 minutes. The citrulline formation was measured in fluorescence (κ=465 nm) on microplate reader and the IC50 was calculated by GraphPad Prism.

PAD4, sequence (Q9UM07 whole entry): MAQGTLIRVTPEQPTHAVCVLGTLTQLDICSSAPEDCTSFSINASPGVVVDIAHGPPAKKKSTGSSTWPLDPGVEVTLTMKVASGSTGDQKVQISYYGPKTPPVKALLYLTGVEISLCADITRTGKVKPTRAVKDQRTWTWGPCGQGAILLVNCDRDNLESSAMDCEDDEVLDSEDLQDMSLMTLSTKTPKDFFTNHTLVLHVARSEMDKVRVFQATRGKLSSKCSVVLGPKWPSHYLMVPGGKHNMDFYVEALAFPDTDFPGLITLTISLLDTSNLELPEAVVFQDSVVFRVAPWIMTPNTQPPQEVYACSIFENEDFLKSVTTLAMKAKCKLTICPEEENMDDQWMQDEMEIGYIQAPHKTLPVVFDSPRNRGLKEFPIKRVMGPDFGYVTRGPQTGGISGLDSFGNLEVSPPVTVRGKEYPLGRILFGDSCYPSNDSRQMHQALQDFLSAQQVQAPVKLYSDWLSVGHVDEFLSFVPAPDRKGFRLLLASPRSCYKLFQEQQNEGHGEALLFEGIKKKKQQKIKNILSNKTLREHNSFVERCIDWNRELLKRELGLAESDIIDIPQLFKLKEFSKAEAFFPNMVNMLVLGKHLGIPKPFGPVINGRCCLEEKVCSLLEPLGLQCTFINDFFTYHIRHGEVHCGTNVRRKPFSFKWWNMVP

## COc1ccc(-c2ccccc2)cc1C(=O)N[C@@H](CCCNC(=N)CF)c1ncc(-c2ccccc2)o1 [EX-38, (S)—N-(4-(2-fluoroacetimidamido)-1-(5-phenyloxazol-2-yl)butyl)-4-methoxy-[1,1′-biphenyl]-3-carboxamide]
  IC50: 200 to 500 nM

## N=C(CF)NCCC[C@H](NC(=O)c1cccc(N2CCCC2)c1)c1ncc(-c2ccccc2)o1 [EX-16, (S)—N-(4-(2-fluoroacetimidamido)-1-(5-phenyloxazol-2-yl)butyl)-3-(pyrrolidin-1-yl)benzamide]
  IC50: 200 to 500 nM

## COc1cccc(OC)c1C(=O)N[C@@H](CCCNC(=N)CF)c1nnc(-c2ccc(Cl)cc2)o1 [EX-39, (S)—N-(1-(5-(4-Chlorophenyl)-1,3,4-oxadiazol-2-yl)-4-(2-fluoroacetimidamido)butyl)-2,6-dimethoxybenzamide]
  IC50: > 500 nM

## COc1ccc(N2CCOCC2)cc1C(=O)N[C@@H](CCCNC(=N)CF)c1ncc(-c2ccccc2)o1 [EX-17, (S)-N-(4-(2-Fluoroacetimidamido)-1-(5-phenyloxazol-2-yl)butyl)-2-methoxy-5-morpholinobenzamide]
  IC50: > 500 nM

## CN(C)c1ccc2cc(C(=O)N[C@@H](CCCNC(=N)CF)c3ncc(-c4ccccc4)o3)ccc2c1 [EX-4, (S)-6-(Dimethylamino)-N-(4-(2-fluoroacetimidamido)-1-(5-phenyloxazol-2-yl)butyl)-2-naphthamide]
  IC50: 200 to 500 nM

## COc1cc2c(OC)cccc2cc1C(=O)N[C@@H](CCCNC(=N)CF)c1ncc(-c2cccc(F)c2)o1 [EX-14, (S)-N-(4-(2-Fluoroacetimidamido)-1-(5-(3-fluorophenyl)oxazol-2-yl)butyl)-3,5-dimethoxy-2-naphthamide]
  IC50: 200 to 500 nM

## COc1cccc(OC)c1C(=O)N[C@@H](CCCNC(=N)CF)c1ncc(-c2ccc(Cl)cc2)o1 [EX-19]
  IC50: 200 to 500 nM

## N=C(CF)NCCC[C@H](NC(=O)c1c(F)cccc1Cl)c1ncc(-c2cccc(Cl)c2)o1 [EX-35, (S)-2-Chloro-N-(1-(5-(3-chlorophenyl)oxazol-2-yl)-4-(2-fluoroacetimidamido)butyl)-6-fluorobenzamide]
  IC50: 200 to 500 nM

## N=C(CF)NCCC[C@H](NC(=O)c1c(Cl)cccc1Cl)c1ncc(-c2ccc(F)cc2)o1 [EX-30, (S)-2,6-Dichloro-N-(4-(2-fluoroacetimidamido)-1-(5-(4-fluorophenyl)oxazol-2-yl)butyl)benzamide]
  IC50: > 500 nM

## COc1ccc(OCCCNC(=O)CCCC(=O)NCCCOCCOCCOCCCNC(=O)CCCC[C@@H]2SC[C@@H]3NC(=O)N[C@@H]32)cc1C(=O)N[C@@H](CCCNC(=N)CF)c1ncc(-c2cccc(Cl)c2)o1 [EX-42, N^1-(3-(3-(((S)-1-(5-(3-Chlorophenyl)oxazol-2-yl)-4-(2-fluoroacetimidamido)butyl)carbamoyl)-4-methoxyphenoxy)propyl)-N^5-(15-oxo-19-((3aS,4S,6aR)-2-oxohexahydro-1H-thieno[3,4-d]imidazol-4-yl)-4,7,10-trioxa-14-azanonadecyl)glutaramide]
  IC50: > 500 nM

## COc1cccc(Cl)c1C(=O)N[C@@H](CCCNC(=N)CF)c1ncc(-c2cccc(Cl)c2)o1 [EX-33, (S)-2-Chloro-N-(1-(5-(3-chlorophenyl)oxazol-2-yl)-4-(2-fluoroacetimidamido)butyl)-6-methoxybenzamide]
  IC50: 200 to 500 nM

## N=C(CF)NCCC[C@H](NC(=O)c1cccc(-c2cccc(Cl)c2)c1)c1ncc(-c2ccccc2)o1 [EX-1, (S)-3′-chloro-N-(4-(2-fluoroacetimidamido)-1-(5-phenyloxazol-2-yl)butyl)-[1,1′-biphenyl]-3-carboxamide]
  IC50: 200 to 500 nM

## COc1cccc(-c2cccc(C(=O)N[C@@H](CCCNC(=N)CF)c3ncc(-c4ccccc4)o3)c2)c1 [EX-5, (S)—N-(4-(2-fluoroacetimidamido)-1-(5-phenyloxazol-2-yl)butyl)-3′-methoxy-[1,1′-biphenyl]-3-carboxamide]
  IC50: 200 to 500 nM

## COc1cccc(Cl)c1C(=O)N[C@@H](CCCNC(=N)CF)c1ncc(-c2ccc(Cl)cc2)o1 [EX-22, (S)-2-chloro-N-(1-(5-(4-chlorophenyl)oxazol-2-yl)-4-(2-fluoroacetimidamido)butyl)-6-methoxybenzamide]
  IC50: 200 to 500 nM

## COc1cccc(Cl)c1C(=O)N[C@@H](CCCNC(=N)CF)c1ncc(-c2cccc(C(F)(F)F)c2)o1 [EX-27, (S)-2-Chloro-N-(4-(2-fluoroacetimidamido)-1-(5-(3-(trifluoromethyl)phenyl)oxazol-2-yl)butyl)-6-methoxybenzamide]
  IC50: > 500 nM

## COc1cccc(Cl)c1C(=O)N[C@@H](CCCNC(=N)CF)c1ncc(-c2ccc(N(C)C)cc2)o1 [EX-29, (S)-2-Chloro-N-(1-(5-(4-(dimethylamino)phenyl)oxazol-2-yl)-4-(2-fluoroacetimidamido)butyl)-6-methoxybenzamide]
  IC50: > 500 nM

## COc1cccc(Cl)c1C(=O)N[C@@H](CCCNC(=N)CF)c1ncc(-c2cccc(C)c2)o1 [EX-28, (S)-2-Chloro-N-(4-(2-fluoroacetimidamido)-1-(5-(m-tolyl)oxazol-2-yl)butyl)-6-methoxybenzamide]
  IC50: 200 to 500 nM

## COc1ccccc1C(=O)N[C@@H](CCCNC(=N)CF)c1ncc(-c2ccccc2)[nH]1 [EX-37, (S)—N-(4-(2-fluoroacetimidamido)-1-(5-phenyl-1H-imidazol-2-yl)butyl)-2-methoxybenzamide]
  IC50: > 500 nM

## N=C(CCl)NCCC[C@H](NC(=O)c1cccc(-c2cccc(Cl)c2)c1)c1ncc(-c2ccccc2)o1 [EX-2, (S)-3′-chloro-N-(4-(2-chloroacetimidamido)-1-(5-phenyloxazol-2-yl)butyl)-[1,1′-biphenyl]-3-carboxamide]
  IC50: > 500 nM

## COc1cc2c(OC)cccc2cc1C(=O)N[C@@H](CCCNC(=N)CF)c1ncc(-c2cccc(Cl)c2)o1 [EX-13, (S)-N-(1-(5-(3-Chlorophenyl)oxazol-2-yl)-4-(2-fluoroacetimidamido)butyl)-3,5-dimethoxy-2-naphthamide]
  IC50: 200 to 500 nM

## N=C(CF)NCCC[C@H](NC(=O)c1cccc(-c2cc(Cl)ccn2)c1)c1ncc(-c2ccccc2)o1 [EX-15]
  IC50: > 500 nM

## N=C(CF)NCCC[C@H](NC(=O)c1cccc(-c2ccc(CO)cc2)c1)c1ncc(-c2ccc(Cl)cc2)o1 [EX-9, (S)—N-(1-(5-(4-chlorophenyl)oxazol-2-yl)-4-(2-fluoroacetimidamido)butyl)-4′-(hydroxymethyl)-[1,1′-biphenyl]-3-carboxamide]
  IC50: > 500 nM

## COc1cccc(Cl)c1C(=O)N[C@@H](CCCNC(=N)CF)c1ncc(-c2cccc(NC(=O)CCCNC(=O)CCCC[C@@H]3SC[C@@H]4NC(=O)N[C@@H]43)c2)o1 [EX-41, 2-Chloro-N—((S)-4-(2-fluoroacetimidamido)-1-(5-(3-(4-(5-((3aS,4S,6aR)-2-oxohexahydro-1H-thieno[3,4-d]imidazol-4-yl)pentanamido)butanamido)phenyl)oxazol-2-yl)butyl)-6-methoxybenzamide]
  IC50: 200 to 500 nM

## COc1ccc(N2CCN(C)CC2)cc1C(=O)N[C@@H](CCCNC(=N)CF)c1ncc(-c2ccccc2)o1 [EX-18, (S)-N-(4-(2-Fluoroacetimidamido)-1-(5-phenyloxazol-2-yl)butyl)-2-methoxy-5-(4-methylpiperazin-1-yl)benzamide]
  IC50: 200 to 500 nM

## COc1cc2c(OC)cccc2cc1C(=O)N[C@@H](CCCNC(=N)CF)c1ncc(C2CCCC2)o1 [EX-11, (S)-N-(1-(5-Cyclopentyloxazol-2-yl)-4-(2-fluoroacetimidamido)butyl)-3,5-dimethoxy-2-naphthamide]
  IC50: 200 to 500 nM
